BindingDB's records for doi:10.1021/jm00346a010 (1982)

Key:
[1] = target: Adenylate kinase (Escherichia coli) (UniProt P69441); test: Ability to inhibit Escherichia coli adenylate kinase III, activity expressed as Inhibition constant; Non competitive inhibition
[2] = target: Adenylate kinase (Escherichia coli) (UniProt P69441); test: Ability to inhibit Escherichia coli adenylate kinase II, activity expressed as Inhibition constant

Row | Ki [1] | Ki [2] | SMILES
1 | 4.8 mM | – | O=C(CI)NCCCCCNc1ncnc2c1ncn2[C@@H]1O[C@H](COP(=O)(O)OP(=O)(O)OP(=O)(O)O)[C@@H](O)[C@H]1O
2 | – | 6.7 mM | CC(=O)NCCCCCCNc1nc2c(N)ncnc2n1C1O[C@H](COP(=O)(O)OP(=O)(O)OP(=O)(O)O)[C@@H](O)[C@H]1O (stereo not given in full)
3 | – | 7.3 mM | NCCCCCCNc1nc2c(N)ncnc2n1C1O[C@H](COP(=O)(O)OP(=O)(O)OP(=O)(O)O)[C@@H](O)[C@H]1O (stereo not given in full)
4 | – | 4.7 mM | O=C(NCCCCCNc1ncnc2c1ncn2C1O[C@H](COP(=O)(O)OP(=O)(O)OP(=O)(O)O)[C@@H](O)[C@H]1O)OCc1ccccc1 (stereo not given in full)
5 | – | 6.8 mM | CN(CCCN(C)C(=O)CCCCNc1ncnc2c1ncn2[C@@H]1O[C@H](COP(=O)(O)OP(=O)(O)OP(=O)(O)O)[C@@H](O)[C@H]1O)C(=O)CCCCNC(=O)OCc1ccccc1
